Like-named read-outs stand apart in the source and are kept apart here. Peptide text beside a SMILES is read from it. * marks the point of attachment. X1 = CCCCCCCCCCCCCCCC(=O)OCC(C*)OC(=O)CCCCCCCCCCCCCCC
Key:
[1] = for Average body weight change (%) Post-dose 1 D 1 / Average body weight change (%) Post-dose 1 D 2 / Average body weight change (%) Post-dose 1 D 14 / Average body weight change (%) Post-dose 2 D 15 / Average body weight change (%) Post-dose 2 D 16 / Average body weight change (%) Post-dose 2 D 21: Table 3; for Average body weight change (%) Post-dose 1 D 1: 5/50 mcg TLR4 agonist/Synsap, alone: 5 mcg 3D-6A-PHAD, 5 mcg EcML, 10 mcg TLR4-1, 50 mcg Synsap, 5/5 mcg AS01B
H3N2 = type: in vivo, C57BL/6 mice; conditions: for HI titers GMT mean: after the boost (day 28)
[2] = background statement; cited from earlier work
[3] = i.m. Days 0 and 14, 0.3 mcg H3N2, D 1
[4] = Table 4, 5 mcg TLR4 agonist / 50 mcg Synsap, 0.3 mcg H3N2

| Compound | Average body weight change (%) Post-dose 1 D 1 [1, 3] [%] | Average body weight change (%) Post-dose 1 D 2 ([1]; same groups, D 2) [%] | Average body weight change (%) Post-dose 1 D 14 ([1]; same groups, D 14) [%] | Average body weight change (%) Post-dose 2 D 15 ([1]; same groups, D 15) [%] | Average body weight change (%) Post-dose 2 D 16 ([1]; same groups, D 16) [%] | Average body weight change (%) Post-dose 2 D 21 ([1]; same groups, D 21) [%] | HI titers GMT mean (H3N2; [4]) | HI titers Fold (compare to AS01B) (H3N2; Table 4, day 28) | HI titers Fold (compare to H3N2) (H3N2; Table 4, day 28) | solubility in water [2] | also measured |
| --- | --- | --- | --- | --- | --- | --- | --- | --- | --- | --- | --- |
| CCCCCCCCCCCCCC(=O)O[C@H](CCCCCCCCCCC)CC(=O)OC1C(NC(=O)C[C@@H](CCCCCCCCCCC)OC(=O)CCCCCCCCCCC)[C@H](OCC2O[C@H](O)C(NC(=O)C[C@H](O)CCCCCCCCCCC)C(OC(=O)C[C@H](O)CCCCCCCCCCC)[C@@H]2O)OC(CO)[C@H]1OP(=O)(O)O (stereo partly drawn) [EcML, reference compound] | −3.607 | −1.832 | 7.914 | −3.002 | −0.735 | 1.468 | 403.2 | 0.3 | 2.5 | – | – |
| CCCCCCCCCCCCCCCC(=O)OCC(CSC[C@H](N)C(=O)N[C@@H](CO)C(=O)N[C@@H](CCCCN)C(=O)N[C@@H](CCCCN)C(=O)N[C@@H](CCCCN)C(=O)N[C@@H](CCCCN)C(=O)O)OC(=O)CCCCCCCCCCCCCCC (stereo partly drawn) [Pam3CSK4, reference compound] (H-C(X1)SKKKK-OH) | – | – | – | – | – | – | – | – | – | – | Body weight change (%) Post-dose 1 D 1 ([1]; Table 5, i.m. Days 0 and 14, 0.3 mcg H3N2, 100 mcg Synsap 5, 10 mcg Pam3CSK4, D 1): −0.996%; Body weight change (%) Post-dose 1 D 2 ([1]; Table 5, same groups, D 2): 2.635%; Body weight change (%) Post-dose 1 D 14 ([1]; Table 5, same groups, D 14): 6.308%; Body weight change (%) Post-dose 2 D 15 ([1]; Table 5, same groups, D 15): −0.998%; Body weight change (%) Post-dose 2 D 16 ([1]; Table 5, same groups, D 16): 0.169%; Body weight change (%) Post-dose 2 D 21 ([1]; Table 5, same groups, D 21): 4.551%; HI titers GMT mean (H3N2; Table 6, 100 mcg Synsap 5, 10 mcg Pam3CSK4, 0.3 mcg H3N2): 2176; HI Titers Fold (compare to CpG1018) (H3N2; Table 6, day 28): 1.0; HI Titers Fold (compare to SynSap 17) (H3N2; Table 6, day 28): 1.1; HI titers Fold (compare to H3N2) (H3N2; Table 6, day 28): 14 |
| CCC(C)C(CC(O)CC(=O)OC1C(C)OC(OC(=O)C23CCC(C)(C)CC2C2=CCC4C5(C)CCC(OC6OC(C(=O)O)C(O)C(OC7OCC(O)C(O)C7O)C6OC6OC(CO)C(O)C(O)C6O)C(C)(C=O)C5CCC4(C)C2(C)CC3O)C(OC2OC(C)C(OC3OCC(O)C(OC4OCC(O)(CO)C4O)C3O)C(OC3OC(CO)C(O)C(O)C3O)C2O)C1O)OC(=O)CC(O)CC(OC1OC(COC2OC(C)C(O)C(O)C2O)C(O)C1O)C(C)CC (stereo not drawn) [QS-17] | – | – | – | – | – | – | – | – | – | water-soluble | – |
| CCC(C)C(CC(O)CC(=O)OC1C(C)OC(OC(=O)C23CCC(C)(C)CC2C2=CCC4C5(C)CCC(OC6OC(C(=O)O)C(O)C(OC7OCC(O)C(O)C7O)C6OC6OC(CO)C(O)C(O)C6O)C(C)(C=O)C5CCC4(C)C2(C)CC3O)C(OC2OC(C)C(OC3OCC(O)C(OC4OCC(O)(CO)C4O)C3O)C(OC3OC(CO)C(O)C(O)C3O)C2O)C1O)OC(=O)CC(O)CC(OC1OC(CO)C(O)C1O)C(C)CC (stereo not drawn) [QS-18] | – | – | – | – | – | – | – | – | – | water-soluble | – |
| COc1ccc(CCCCCCCCNC(=O)[C@H]2O[C@@H](O[C@H]3CCC4(C)C5CC=C6C7CC(C)(C)CC[C@]7(C(=O)O[C@@H]7OC(C)[C@H](O)[C@H](O)C7O[C@@H]7OC(C)[C@H](O[C@@H]8OC[C@@H](O)[C@H](O)C8O)[C@H](O)C7O)C(O)CC6(C)[C@@]5(C)CC[C@H]4[C@@]3(C)C=O)[C@H](O)[C@@H](O)[C@@H]2O)cc1 (stereo partly drawn) [Synsap 1] | −1.096 | −1.736 | 3.753 | 2.417 | −1.393 | 6.148 | 320 | 0.25 | 2 | – | – |
| CCCCCCCCCCCCCC(=O)O[C@H](CCCCCCCCCCC)CC(=O)NC1C(OC(=O)C[C@@H](CCCCCCCCCCC)OC(=O)CCCCCCCCCCCCC)[C@H](OP(=O)(O)O)C(CO)O[C@H]1OCC1O[C@H](O)C(NC(=O)C[C@@H](CCCCCCCCCCC)OC(=O)CCCCCCCCCCCCC)C(O)[C@@H]1O.N (stereo partly drawn) [Synsap 3D-6A-PHAD, reference compound] | −5.362 | −2.900 | 6.215 | −1.147 | 0.463 | 2.331 | 806.3 | 0.6 | 5.0 | – | – |

— patent publication US20250295763A1 (priority 2024, published 2025)
